The values that follow come from publication PMC9683054, “Synthesis of N-(4-chlorophenyl) substituted pyrano[2,3-c]pyrazoles enabling PKBβ/AKT2 inhibitory and in vitro anti-glioma activity” (Annals of Medicine, 2022).

One test has as its target T1, AKT2/PKBβ (Homo sapiens, UniProt P31751, S474D).
T1 construct: ΔPH-PKBβ-S474D
Put plainly: […]-γ-ATP radiometric kinase assay with purified kinase and Crosstide peptide. It counts as biochemical.

The target in a further test is T2, AKT1/PKBα (Homo sapiens, UniProt P31749, S473D).
T2 construct: ΔPH-PKBα-S473D
T2 sequence (P31749 118-480 S473D limits assumed): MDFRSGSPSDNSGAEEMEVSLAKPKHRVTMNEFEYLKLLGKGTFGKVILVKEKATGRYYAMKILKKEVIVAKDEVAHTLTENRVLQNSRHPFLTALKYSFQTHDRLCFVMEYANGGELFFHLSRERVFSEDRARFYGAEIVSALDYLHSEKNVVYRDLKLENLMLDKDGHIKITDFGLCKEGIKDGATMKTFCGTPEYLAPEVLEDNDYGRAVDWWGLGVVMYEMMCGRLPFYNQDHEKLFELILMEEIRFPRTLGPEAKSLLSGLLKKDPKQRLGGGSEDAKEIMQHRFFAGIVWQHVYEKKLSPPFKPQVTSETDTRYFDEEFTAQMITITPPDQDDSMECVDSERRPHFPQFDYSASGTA
Described as above. It counts as biochemical.

pIC50: −log10 of the molar value.

T1 sequence (P31751 119-481 S474D limits assumed): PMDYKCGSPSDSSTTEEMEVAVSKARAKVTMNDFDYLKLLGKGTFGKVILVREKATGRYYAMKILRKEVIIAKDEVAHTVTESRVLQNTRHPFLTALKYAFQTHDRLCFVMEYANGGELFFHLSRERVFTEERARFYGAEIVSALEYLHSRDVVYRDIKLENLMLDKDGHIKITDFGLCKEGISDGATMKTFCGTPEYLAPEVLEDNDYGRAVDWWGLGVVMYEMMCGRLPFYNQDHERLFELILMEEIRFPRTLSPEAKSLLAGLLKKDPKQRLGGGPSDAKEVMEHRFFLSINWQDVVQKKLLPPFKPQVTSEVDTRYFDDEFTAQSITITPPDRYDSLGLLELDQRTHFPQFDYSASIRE

For orientation: pIC50 means the negative decadic logarithm of the IC50, by convention in mol/L. Read a low pIC50 as a large IC50. Regarding `Cc1nn(-c2ccc(Cl)cc2)c2c1C(c1ccc(-c3ccccc3)cc1)C(C#N)=C(N)O2` (centres unmarked) [4j, 6-Amino-4-(biphenyl-4-yl)-1-(4-chlorophenyl)-3-methyl-1,4-dihydropyrano[2,3-c]pyrazole-5-carbonitrile], the pIC50 on AKT2/PKBβ is 4.92; at AKT1/PKBα, 4.85.
